Results published in patent publication US20120165403A1, “METHODS OF INHIBITING THE ACTIVITY OF HSP90 AND/OR ARYL HYDROCARBON RECEPTOR” (UNIVERSITY OF ROCHESTER, priority 2004, published 2012).

Key:
[1] = system: TCDD induced luciferase activity (human CYP1A1 promoter); experiment: Luciferase reporter gene assay in HepG2.101L cells; assay type: cell-based
Protocol: The human hepatoma cell line HepG2 were stably transfected with a luciferase expression vector downstream from exon one, a portion of intron one, and 1612 base pairs of the 5′-flanking sequence of the human CYP1A gene to generate the cell line HepG2.101L, as previously described (Postlind et al., Toxicol. Appl. Pharmacol 118:255-262 (1993), which is hereby incorporated by reference in its entirety). Cells were grown in Dulbecco's modified Eagle's medium (Mediatech Herndon, Va.) supplemented with 10% fetal bovine serum and Gentamicin (DMEM) at 37° C. in a humid atmosphere with 5% CO2. Treatment and reporter gene activity were assessed as previously described (Palermo et al., Chem. Res. Toxicol. 16:865-872 (2003), which is hereby incorporated by reference in its entirety) with the following changes: HepG2.101L cells were added to hydrated Cytodex™ microcarrier beads (Sigma) to achieve 1.5×10^6 cells per 30 mg beads per 10 ml DMEM. Luminescence was detected using the Packard Lumicount™ (Meriden, Conn.).

hsp90 = experiment: Affinity chromatography on EGCG-conjugated Sepharose, Hepa cytosol hsp90; assay type: binding, mouse
chicken hsp90 = chicken hsp90 (Gallus gallus, UniProt P11501); experiment: Affinity chromatography on EGCG-conjugated Sepharose, hsp90 point and truncation mutants; assay type: binding; parameters: made in house; host or cells: coupled transcription/translation in rabbit reticulocyte lysate (TNT, Promega), 35S-labelled; conditions: smallest truncation mutant N538, amino acids 538-728
Chain of chicken hsp90 (P11501 538-728): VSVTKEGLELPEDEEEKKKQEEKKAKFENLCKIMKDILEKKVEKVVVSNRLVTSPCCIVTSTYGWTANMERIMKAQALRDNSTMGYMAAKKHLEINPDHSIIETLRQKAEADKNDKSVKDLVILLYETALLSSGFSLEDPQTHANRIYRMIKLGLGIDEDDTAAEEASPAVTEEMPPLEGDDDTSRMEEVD
From the text: Murine AhR and ARNT cDNA (obtained from J. Whitlock and O. Hankinson, respectively) were inserted into pcDNA3 (Invitrogen, Carlsbad, Calif.). Chicken hsp90 constructs (FIG. 5), c90711hsp (wild-type), c90G94D (wild-type point mutant gly94→Asp (Grenert et al., J. Biol. Chem. 272:23843-23850 (1997), which is hereby incorporated by reference in its entirety), c90D92A (wild-type point mutant Asp92→Ala (Sullivan et al., J. Biol. Chem. 268:20373-20379 (1993), which is hereby incorporated by reference in its entirety), c90N221 (wild-type truncation mutant encoding a.a. 221-728 (Sullivan et al., J. Biol. Chem. 268:20373-20379 (1993), which is hereby incorporated by reference in its entirety)), c90N303 (a.a. 303-728) and c90N538 (a.a. 538-728) were kind gifts from Dr. D. Toft (Rochester, Minn.). The C-terminal truncation mutant c900507 (a.a. 1-221) was obtained from Dr. L. Neckers (Rockville, Md.) (Grenert et al., J. Biol. Chem. 272:23843-23850 (1997); Marcu et al., J. Biol. Chem. 275:37181-37186 (2000), which are hereby incorporated by reference in their entirety). Human p23 cDNA was excised from pQE80-p23 (obtained from W. Chan Stockton, Calif.) by sequential digests using the restriction enzymes Sad (3′-end) and BamHI (5′-end) and inserted into the similarly digested pET28a (Novagen, Madison, Wis.). […]

With `O=C(O[C@@H]1Cc2c(O)cc(O)cc2O[C@@H]1c1cc(O)c(O)c(O)c1)c1cc(O)c(O)c(O)c1` [EGCG, epigallocatechin gallate] the IC50 ([1]; 500 pM TCDD, 4 h, read-out: IC50, inhibition of TCDD induced luciferase activity) was roughly 100 µM, the “induction of luciferase activity, treatment alone” value ([1]; EGCG alone) was “did not induce luciferase activity significantly over background” and the “binding of hsp90 to EGCG-Sepharose” value (hsp90) was “also eluted from EGCG-Sepharose”. For the same molecule, the “location of the binding site on hsp90” value (chicken hsp90) was “binding of EGCG occurs within this region of the protein”.
